In US10988477B2 (Merck Patent GmbH, priority 2018, dated 2021) one finds Ki data, which are given here for 35 molecules.

The structures appear in SMILES notation.

Chain of GCN2 kinase (Q9P2K8 whole entry): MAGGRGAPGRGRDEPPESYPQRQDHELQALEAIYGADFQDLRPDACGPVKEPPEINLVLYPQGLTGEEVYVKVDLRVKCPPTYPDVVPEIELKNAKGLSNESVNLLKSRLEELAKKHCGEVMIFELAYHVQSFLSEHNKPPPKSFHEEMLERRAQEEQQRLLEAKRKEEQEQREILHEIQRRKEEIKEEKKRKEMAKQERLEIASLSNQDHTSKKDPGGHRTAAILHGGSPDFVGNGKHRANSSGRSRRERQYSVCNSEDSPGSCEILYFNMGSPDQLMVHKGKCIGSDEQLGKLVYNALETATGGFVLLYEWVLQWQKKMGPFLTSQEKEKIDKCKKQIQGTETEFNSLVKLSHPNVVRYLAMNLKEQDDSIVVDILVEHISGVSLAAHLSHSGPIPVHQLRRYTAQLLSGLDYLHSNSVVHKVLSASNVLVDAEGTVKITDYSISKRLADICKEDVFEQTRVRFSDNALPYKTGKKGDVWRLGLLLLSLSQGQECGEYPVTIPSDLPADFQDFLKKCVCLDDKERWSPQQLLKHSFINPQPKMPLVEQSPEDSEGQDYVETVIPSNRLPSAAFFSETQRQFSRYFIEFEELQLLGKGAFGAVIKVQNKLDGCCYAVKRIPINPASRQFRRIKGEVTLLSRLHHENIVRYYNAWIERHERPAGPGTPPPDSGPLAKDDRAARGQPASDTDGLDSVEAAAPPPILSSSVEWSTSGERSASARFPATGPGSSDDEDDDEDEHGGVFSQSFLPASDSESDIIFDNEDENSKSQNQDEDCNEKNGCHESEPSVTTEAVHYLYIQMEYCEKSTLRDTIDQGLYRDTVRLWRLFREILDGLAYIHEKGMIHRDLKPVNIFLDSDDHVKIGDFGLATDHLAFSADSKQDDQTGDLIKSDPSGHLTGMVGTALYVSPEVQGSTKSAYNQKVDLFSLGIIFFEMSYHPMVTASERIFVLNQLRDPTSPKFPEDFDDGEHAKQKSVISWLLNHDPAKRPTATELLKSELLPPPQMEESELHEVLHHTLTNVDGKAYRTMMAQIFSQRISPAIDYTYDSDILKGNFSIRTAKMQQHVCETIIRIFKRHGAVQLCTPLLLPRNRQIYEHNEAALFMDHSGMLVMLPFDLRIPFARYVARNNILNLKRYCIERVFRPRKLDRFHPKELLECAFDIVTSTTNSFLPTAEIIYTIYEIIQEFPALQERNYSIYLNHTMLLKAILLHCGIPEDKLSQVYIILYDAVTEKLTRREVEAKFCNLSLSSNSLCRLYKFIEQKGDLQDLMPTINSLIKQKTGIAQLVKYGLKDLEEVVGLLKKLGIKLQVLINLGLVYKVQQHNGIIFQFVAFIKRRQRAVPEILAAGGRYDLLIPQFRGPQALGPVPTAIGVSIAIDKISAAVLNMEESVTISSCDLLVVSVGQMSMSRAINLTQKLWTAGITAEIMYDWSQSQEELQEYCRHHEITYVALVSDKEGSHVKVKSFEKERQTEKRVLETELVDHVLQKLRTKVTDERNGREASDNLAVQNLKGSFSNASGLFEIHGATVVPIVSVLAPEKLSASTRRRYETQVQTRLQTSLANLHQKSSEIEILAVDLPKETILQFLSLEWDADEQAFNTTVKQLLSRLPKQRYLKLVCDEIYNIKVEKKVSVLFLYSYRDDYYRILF

The target in the experiment is GCN2 kinase (Homo sapiens, UniProt Q9P2K8). Put plainly: GCN2 enzyme inhibition assay (Transcreener ADP2 fluorescence polarization). The format is biochemical. The conditions noted are these: Enzyme activity for compounds of Formula IV; Ki(app), 280 μM ATP, 25° C. The gist of the method:
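Run at 25 °C in 25 mM Tris-HCl pH 7.5, 50 mM NaCl, 10 mM MgCl2, 1 mM DTT with 4 nM GCN2, 280 μM ATP and 200 μM (RS)7 peptide; compound (0–8 μM final) preincubated 10 min, reaction 1 h. ADP read by antibody/tracer FP; IC50 and Ki(app) from tight-binding fit.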
(In general: Fluorescence polarisation rises when a labelled molecule tumbles more slowly, as on binding a larger partner.)
For the molecule `CC(C)(O)C1CCN(c2ccnc(-c3cnc4cnc(C(F)(F)F)cn34)n2)C1` (centres unmarked) [IV-520, 2-(1-(2-(6-(Trifluoromethyl)imidazo[1,2-a]pyrazin-3-yl)pyrimidin-4-yl)pyrrolidin-3-yl)propan-2-ol], the Ki lay within 100 to 1000 nM. `FC(F)(F)c1cn2c(-c3nccc(N4CCC5(CCOCC5)C4)n3)cnc2cn1` [IV-522, 2-(2-(6-(Trifluoromethyl)imidazo[1,2-a]pyrazin-3-yl)pyrimidin-4-yl)-8-oxa-2-azaspiro[4.5]decane]: the Ki is 100 to 1000 nM. For `FC(F)(F)c1cn2c(-c3nccc(N4CCCC5(COC5)C4)n3)cnc2cn1` [IV-523, 6-(2-(6-(Trifluoromethyl)imidazo[1,2-a]pyrazin-3-yl)pyrimidin-4-yl)-2-oxa-6-azaspiro[3.5]nonane], the Ki was 100 to 1000 nM. The molecule `CC(=O)NCC1CCCN(c2ccnc(-c3cnc4cnc(C(F)(F)F)cn34)n2)C1` (centres unmarked) [IV-526, N-((1-(2-(6-(Trifluoromethyl)imidazo[1,2-a]pyrazin-3-yl)pyrimidin-4-yl)piperidin-3-yl)methyl)acetamide] came in with a Ki of 100 to 1000 nM. The same measure for `NC(=O)NCC1CCCN(c2ccnc(-c3cnc4cnc(C(F)(F)F)cn34)n2)C1` (centres unmarked) [IV-527, 1-((1-(2-(6-(Trifluoromethyl)imidazo[1,2-a]pyrazin-3-yl)pyrimidin-4-yl)piperidin-3-yl)methyl)urea]: 100 to 1000 nM; for `CC(=O)NC1CCN(c2ccnc(-c3cnc4cnc(C(F)(F)F)cn34)n2)C1` (centres unmarked) [IV-528, N-(1-(2-(6-(Trifluoromethyl)imidazo[1,2-a]pyrazin-3-yl)pyrimidin-4-yl)pyrrolidin-3-yl)acetamide]: 100 to 1000 nM.

Molecule `NC(=O)CC1CCCN(c2ccnc(-c3cnc4cnc(C(F)(F)F)cn34)n2)C1` (centres unmarked) [IV-529, 2-(1-(2-(6-(Trifluoromethyl)imidazo[1,2-a]pyrazin-3-yl)pyrimidin-4-yl)piperidin-3-yl)acetamide] gave a Ki of 100 to 1000 nM. With `CC(=O)NC1CCCN(c2ccnc(-c3cnc4cnc(C(F)(F)F)cn34)n2)C1` (centres unmarked) [IV-530, N-(1-(2-(6-(Trifluoromethyl)imidazo[1,2-a]pyrazin-3-yl)pyrimidin-4-yl)piperidin-3-yl)acetamide], the Ki lay in the range of 100 to 1000 nM.

For `CC1(C)CN(c2ccnc(-c3cnc4cnc(C(F)(F)F)cn34)n2)CCO1` [IV-531, 2,2-Dimethyl-4-(2-(6-(trifluoromethyl)imidazo[1,2-a]pyrazin-3-yl)pyrimidin-4-yl)morpholine], the Ki lay in the range of 100 to 1000 nM. In the case of `CC1(C)COCCN1c1ccnc(-c2cnc3cnc(C(F)(F)F)cn23)n1` [IV-532, 3,3-Dimethyl-4-(2-(6-(trifluoromethyl)imidazo[1,2-a]pyrazin-3-yl)pyrimidin-4-yl)morpholine], the Ki lay within 100 to 1000 nM. Turning to `O=C1NCCC12CCN(c1ccnc(-c3cnc4cnc(C(F)(F)F)cn34)n1)C2` (centres unmarked) [IV-533, 7-(2-(6-(Trifluoromethyl)imidazo[1,2-a]pyrazin-3-yl)pyrimidin-4-yl)-2,7-diazaspiro[4.4]nonan-1-one], the Ki is 100 to 1000 nM.

Regarding `O=C1CC2(CCN(c3ccnc(-c4cnc5cnc(C(F)(F)F)cn45)n3)C2)CN1` (centres unmarked) [IV-534, 7-(2-(6-(Trifluoromethyl)imidazo[1,2-a]pyrazin-3-yl)pyrimidin-4-yl)-2,7-diazaspiro[4.4]nonan-3-one], the Ki lay in the range of 100 to 1000 nM. Turning to `NS(=O)(=O)C1CCCN(c2ccnc(-c3cnc4cnc(C(F)(F)F)cn34)n2)C1` (centres unmarked) [IV-536, 1-(2-(6-(Trifluoromethyl)imidazo[1,2-a]pyrazin-3-yl)pyrimidin-4-yl)piperidine-3-sulfonamide], the Ki is 100 to 1000 nM. With `CC(=O)NCC1CCN(c2ccnc(-c3cnc4cnc(C(F)(F)F)cn34)n2)C1` (centres unmarked) [IV-537, N-((1-(2-(6-(Trifluoromethyl)imidazo[1,2-a]pyrazin-3-yl)pyrimidin-4-yl)pyrrolidin-3-yl)methyl)acetamide] the figure was 100 to 1000 nM; with `CC1(C(N)=O)CCCN(c2ccnc(-c3cnc4cnc(C(F)(F)F)cn34)n2)C1` (centres unmarked) [IV-539, 3-Methyl-1-(2-(6-(trifluoromethyl)imidazo[1,2-a]pyrazin-3-yl)pyrimidin-4-yl)piperidine-3-carboxamide], 100 to 1000 nM.

The molecule `O=C1NCCC12CCCN(c1ccnc(-c3cnc4cnc(C(F)(F)F)cn34)n1)C2` (centres unmarked) [IV-542, 7-(2-(6-(Trifluoromethyl)imidazo[1,2-a]pyrazin-3-yl)pyrimidin-4-yl)-2,7-diazaspiro[4.5]decan-1-one] returned a Ki of 100 to 1000 nM. The same measure for `FC(F)(F)c1cn2c(-c3nccc(N4CCCC(n5cncn5)C4)n3)cnc2cn1` (centres unmarked) [IV-547, 3-(4-(3-(1H-1,2,4-Triazol-1-yl)piperidin-1-yl)pyrimidin-2-yl)-6-(trifluoromethyl)imidazo[1,2-a]pyrazine]: 100 to 1000 nM.

For `FC(F)(F)c1cn2c(-c3nccc(N4CCC(c5ccncc5)C4)n3)cnc2cn1` (centres unmarked) [IV-550, 3-(4-(3-(Pyridin-4-yl)pyrrolidin-1-yl)pyrimidin-2-yl)-6-(trifluoromethyl)imidazo[1,2-a]pyrazine], the Ki was 100 to 1000 nM. With `FC(F)(F)c1cn2c(-c3nccc(N4CCC(c5ccccn5)C4)n3)cnc2cn1` (centres unmarked) [IV-552, 3-(4-(3-(Pyridin-2-yl)pyrrolidin-1-yl)pyrimidin-2-yl)-6-(trifluoromethyl)imidazo[1,2-a]pyrazine], the Ki was in the range of 100 to 1000 nM. For the molecule `FC(F)(F)c1cn2c(-c3nccc(N4CCC(N5CCOCC5)C4)n3)cnc2cn1` (centres unmarked) [IV-553, 4-(1-(2-(6-(Trifluoromethyl)imidazo[1,2-a]pyrazin-3-yl)pyrimidin-4-yl)pyrrolidin-3-yl)morpholine], the Ki fell in the range of 100 to 1000 nM. `CN1CCCC2(CCN(c3ccnc(-c4cnc5cnc(C(F)(F)F)cn45)n3)C2)C1=O` (centres unmarked) [IV-554, 7-Methyl-2-(2-(6-(trifluoromethyl)imidazo[1,2-a]pyrazin-3-yl)pyrimidin-4-yl)-2,7-diazaspiro[4.5]decan-6-one] came in with a Ki of 100 to 1000 nM. Turning to `CC1CN(c2ccnc(-c3cnc4cnc(C(F)(F)F)cn34)n2)CC1C` (centres unmarked) [IV-555, 3-(4-(3,4-Dimethylpyrrolidin-1-yl)pyrimidin-2-yl)-6-(trifluoromethyl)imidazo[1,2-a]pyrazine], the Ki lay in the range of 100 to 1000 nM. With `FC(F)(F)c1cn2c(-c3nccc(N4CCC(c5ccccc5)C4)n3)cnc2cn1` (centres unmarked) [IV-556, 3-(4-(3-Phenylpyrrolidin-1-yl)pyrimidin-2-yl)-6-(trifluoromethyl)imidazo[1,2-a]pyrazine] the figure was 100 to 1000 nM. With `O=C1CCCN1CC1CCN(c2ccnc(-c3cnc4cnc(C(F)(F)F)cn34)n2)C1` (centres unmarked) [IV-557, 1-((1-(2-(6-(Trifluoromethyl)imidazo[1,2-a]pyrazin-3-yl)pyrimidin-4-yl)pyrrolidin-3-yl)methyl)pyrrolidin-2-one] the figure was 100 to 1000 nM; with `FC(F)(F)c1cn2c(-c3nccc(N4CCC(COc5ccccc5)C4)n3)cnc2cn1` (centres unmarked) [IV-559, 3-(4-(3-(Phenoxymethyl)pyrrolidin-1-yl)pyrimidin-2-yl)-6-(trifluoromethyl)imidazo[1,2-a]pyrazine], 100 to 1000 nM; with `O=C1NC(=O)C2(CCN(c3ccnc(-c4cnc5cnc(C(F)(F)F)cn45)n3)C2)N1` (centres unmarked) [IV-560, 7-(2-(6-(Trifluoromethyl)imidazo[1,2-a]pyrazin-3-yl)pyrimidin-4-yl)-1,3,7-triazaspiro[4.4]nonane-2,4-dione], 100 to 1000 nM. As to `FC(F)(F)c1cn2c(-c3nccc(N4CCCC4Cc4ccccc4)n3)cnc2cn1` (centres unmarked) [IV-561, 3-(4-(2-Benzylpyrrolidin-1-yl)pyrimidin-2-yl)-6-(trifluoromethyl)imidazo[1,2-a]pyrazine], the Ki fell in the range of 100 to 1000 nM. In turn, `FC(F)(F)c1cn2c(-c3nccc(N4CCC(n5ccnc5)C4)n3)cnc2cn1` (centres unmarked) [IV-564, 3-(4-(3-(1H-Imidazol-1-yl)pyrrolidin-1-yl)pyrimidin-2-yl)-6-(trifluoromethyl)imidazo[1,2-a]pyrazine] had a Ki of 100 to 1000 nM. `CN1CC2(CCN(c3ccnc(-c4cnc5cnc(C(F)(F)F)cn45)n3)C2)OCC1=O` (centres unmarked) [IV-565, 9-Methyl-2-(2-(6-(trifluoromethyl)imidazo[1,2-a]pyrazin-3-yl)pyrimidin-4-yl)-6-oxa-2,9-diazaspiro[4.5]decan-8-one] came in with a Ki of 100 to 1000 nM. The same measure for `NC(=O)CN1CCCN(c2ccnc(-c3cnc4cnc(C(F)(F)F)cn34)n2)CC1` [IV-566, 2-(4-(2-(6-(Trifluoromethyl)imidazo[1,2-a]pyrazin-3-yl)pyrimidin-4-yl)-1,4-diazepan-1-yl)acetamide]: 100 to 1000 nM; for `O=C1NCCN2CCN(c3ccnc(-c4cnc5cnc(C(F)(F)F)cn45)n3)CC12` (centres unmarked) [IV-568, 8-(2-(6-(Trifluoromethyl)imidazo[1,2-a]pyrazin-3-yl)pyrimidin-4-yl)hexahydro-2H-pyrazino[1,2-a]pyrazin-1(6H)-one]: 100 to 1000 nM. On to `CC1CN(c2ccnc(-c3cnc4cnc(C(F)(F)F)cn34)n2)CC1N1CCOCC1` (centres unmarked) [IV-569, 4-(4-Methyl-1-(2-(6-(trifluoromethyl)imidazo[1,2-a]pyrazin-3-yl)pyrimidin-4-yl)pyrrolidin-3-yl)morpholine], for which the Ki lay within 100 to 1000 nM. The same measure for `O=S1(=O)CCC2CN(c3ccnc(-c4cnc5cnc(C(F)(F)F)cn45)n3)CC21` (centres unmarked) [IV-570, 5-(2-(6-(Trifluoromethyl)imidazo[1,2-a]pyrazin-3-yl)pyrimidin-4-yl)hexahydro-2H-thieno[2,3-a]pyrrole 1,1-dioxide]: 100 to 1000 nM; for `O=C1CN(c2ccnc(-c3cnc4cnc(C(F)(F)F)cn34)n2)CC2CCCCN12` (centres unmarked) [IV-571, 2-(2-(6-(Trifluoromethyl)imidazo[1,2-a]pyrazin-3-yl)pyrimidin-4-yl)octahydro-4H-pyrido[1,2-a]pyrazin-4-one]: 100 to 1000 nM; for `CN1CC2(CCN(c3ccnc(-c4cnc5cnc(C(F)(F)F)cn45)n3)C2)OC1=O` (centres unmarked) [IV-579, 3-Methyl-7-(2-(6-(trifluoromethyl)imidazo[1,2-a]pyrazin-3-yl)pyrimidin-4-yl)-1-oxa-3,7-diazaspiro[4.4]nonan-2-one]: 100 to 1000 nM.
